Experimental data taken from ChEMBL document CHEMBL1201862, “PubChem BioAssay data set” (2004).
Each block holds one compound with its values, some of them ahead of it. Activity calls are given as the source filed them.

Columns and labels:
Assay type in all cases: functional
[1] = target: Leucine-rich repeat serine/threonine-protein kinase 2 (Homo sapiens, UniProt Q5S007);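 also: value from a broad kinome-wide panel profiling study in which LRRK2 was one of the kinases tested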
[2] = target: Tyrosine-protein kinase BTK (Homo sapiens, UniProt Q06187)
[3] = target: Serine/threonine-protein kinase N2 (Homo sapiens, UniProt Q16513)
[4] = target: Serine/threonine-protein kinase 17A (Homo sapiens, UniProt Q9UEE5)
[5] = target: Inhibitor of nuclear factor kappa-B kinase subunit epsilon (Homo sapiens, UniProt Q14164); test: Navigating the Kinome. Panel member name: IKBKE
[6] = target: Cyclin-dependent kinase 8 (Homo sapiens, UniProt P49336); test: Navigating the Kinome. Panel member name: CDK8
[7] = target: Dual specificity mitogen-activated protein kinase kinase 2 (Homo sapiens, UniProt P36507); test: Navigating the Kinome. Panel member name: MAP2K2
[8] = target: Tyrosine-protein kinase receptor TYRO3 (Homo sapiens, UniProt Q06418);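 also: TYRO3 value obtained as one member of a kinome-wide profiling panel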
[9] = target: Mitogen-activated protein kinase kinase kinase kinase 2 (Homo sapiens, UniProt Q12851);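 also: measured as one member of a kinome-wide kinase panel, with MAP4K2 as the panel entry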
[10] = target: Calcium/calmodulin-dependent protein kinase type II subunit alpha (Homo sapiens, UniProt Q9UQM7); test: Navigating the Kinome. Panel member name: CAMK2A
[11] = target: Homeodomain-interacting protein kinase 2 (Homo sapiens, UniProt Q9H2X6);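 also: measured within a kinome-wide kinase profiling panel, HIPK2 being one panel member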
[12] = target: cAMP-dependent protein kinase catalytic subunit PRKX (Homo sapiens, UniProt P51817)
[13] = target: ALK tyrosine kinase receptor (Homo sapiens, UniProt Q9UM73);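 also: ALK tested as one member of a kinase panel screen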
Misshapen-like kinase 1 = Misshapen-like kinase 1 (Homo sapiens, UniProt Q8N4C8);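 also: kinome panel screen with MINK as the panel member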
[14] = target: Serine/threonine-protein kinase TAO1 (Homo sapiens, UniProt Q7L7X3)
[15] = target: Casein kinase I isoform alpha (Homo sapiens, UniProt P48729)
[16] = target: Serine/threonine-protein kinase PLK3 (Homo sapiens, UniProt Q9H4B4)
[17] = target: Receptor tyrosine-protein kinase erbB-2 (Homo sapiens, UniProt P04626); test: Navigating the Kinome. Panel member name: ERBB2
LIM domain kinase 1 = LIM domain kinase 1 (Homo sapiens, UniProt P53667); test: Navigating the Kinome. Panel member name: LIMK1
[18] = target: Casein kinase I isoform delta (Homo sapiens, UniProt P48730);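 also: measured as one member (CSNK1D) of a kinome panel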
[19] = target: Serine/threonine-protein kinase PLK4 (Homo sapiens, UniProt O00444);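 also: PLK4 measured as one member of a kinome-wide kinase profiling panel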
[20] = target: Non-receptor tyrosine-protein kinase TYK2 (Homo sapiens, UniProt P29597)
[21] = target: Mitogen-activated protein kinase 1 (Homo sapiens, UniProt P28482)
[22] = target: Serine/threonine-protein kinase Chk1 (Homo sapiens, UniProt O14757);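 also: measured as one member of a kinome-wide kinase profiling panel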
Ephrin type-A receptor 2 = Ephrin type-A receptor 2 (Homo sapiens, UniProt P29317);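 also: EPHA2 tested as one member of a kinome-wide kinase panel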
[23] = target: Ribosomal protein S6 kinase beta-1 (Homo sapiens, UniProt P23443);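 also: measured as one member of a kinome-wide profiling panel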
[24] = target: Serine/threonine-protein kinase Nek2 (Homo sapiens, UniProt P51955)
[25] = target: MAP kinase-activated protein kinase 3 (Homo sapiens, UniProt Q16644);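 also: value comes from a kinome-wide profiling panel in which MAPKAPK3 is one of the panel members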
[26] = target: MAP/microtubule affinity-regulating kinase 3 (Homo sapiens, UniProt P27448);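 also: MARK3 affinity measured as one member of a kinome panel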
[27] = target: RAC-gamma serine/threonine-protein kinase (Homo sapiens, UniProt Q9Y243)

Ribosomal protein S6 kinase beta-1, sequence (P23443 whole entry): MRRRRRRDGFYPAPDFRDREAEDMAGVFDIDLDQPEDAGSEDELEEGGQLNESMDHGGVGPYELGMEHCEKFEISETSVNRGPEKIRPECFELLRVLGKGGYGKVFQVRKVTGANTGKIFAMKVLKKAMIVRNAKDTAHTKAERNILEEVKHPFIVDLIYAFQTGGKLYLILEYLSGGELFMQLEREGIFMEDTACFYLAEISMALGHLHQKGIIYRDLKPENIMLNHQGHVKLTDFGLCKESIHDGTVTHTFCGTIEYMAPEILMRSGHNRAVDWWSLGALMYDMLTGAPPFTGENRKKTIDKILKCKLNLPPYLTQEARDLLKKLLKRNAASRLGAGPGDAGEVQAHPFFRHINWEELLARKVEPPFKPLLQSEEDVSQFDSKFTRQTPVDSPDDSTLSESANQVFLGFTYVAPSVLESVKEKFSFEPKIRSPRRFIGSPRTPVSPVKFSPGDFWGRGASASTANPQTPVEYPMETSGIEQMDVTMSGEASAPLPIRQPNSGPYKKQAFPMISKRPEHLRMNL
Mitogen-activated protein kinase kinase kinase kinase 2, sequence (Q12851 whole entry): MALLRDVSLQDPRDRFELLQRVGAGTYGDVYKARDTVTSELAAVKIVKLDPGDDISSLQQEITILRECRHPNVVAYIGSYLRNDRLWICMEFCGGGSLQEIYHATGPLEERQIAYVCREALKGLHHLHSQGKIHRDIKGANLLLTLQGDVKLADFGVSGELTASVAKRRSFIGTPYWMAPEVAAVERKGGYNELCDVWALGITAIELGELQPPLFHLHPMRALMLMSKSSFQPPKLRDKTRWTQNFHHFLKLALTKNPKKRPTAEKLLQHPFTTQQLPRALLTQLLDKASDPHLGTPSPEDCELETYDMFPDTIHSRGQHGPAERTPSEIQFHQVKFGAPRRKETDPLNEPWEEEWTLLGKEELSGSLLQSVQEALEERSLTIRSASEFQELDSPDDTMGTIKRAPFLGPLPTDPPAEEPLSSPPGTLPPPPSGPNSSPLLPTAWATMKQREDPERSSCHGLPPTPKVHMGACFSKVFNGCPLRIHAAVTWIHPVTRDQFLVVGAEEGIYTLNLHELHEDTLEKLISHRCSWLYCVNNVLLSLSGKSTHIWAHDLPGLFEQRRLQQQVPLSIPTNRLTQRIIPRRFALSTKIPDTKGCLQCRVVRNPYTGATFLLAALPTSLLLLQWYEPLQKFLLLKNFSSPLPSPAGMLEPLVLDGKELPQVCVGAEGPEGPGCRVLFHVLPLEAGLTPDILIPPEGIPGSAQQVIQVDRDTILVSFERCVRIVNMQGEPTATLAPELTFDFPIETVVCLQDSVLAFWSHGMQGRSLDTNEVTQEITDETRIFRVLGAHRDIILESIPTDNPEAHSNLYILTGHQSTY
Cyclin-dependent kinase 8, sequence (P49336 whole entry): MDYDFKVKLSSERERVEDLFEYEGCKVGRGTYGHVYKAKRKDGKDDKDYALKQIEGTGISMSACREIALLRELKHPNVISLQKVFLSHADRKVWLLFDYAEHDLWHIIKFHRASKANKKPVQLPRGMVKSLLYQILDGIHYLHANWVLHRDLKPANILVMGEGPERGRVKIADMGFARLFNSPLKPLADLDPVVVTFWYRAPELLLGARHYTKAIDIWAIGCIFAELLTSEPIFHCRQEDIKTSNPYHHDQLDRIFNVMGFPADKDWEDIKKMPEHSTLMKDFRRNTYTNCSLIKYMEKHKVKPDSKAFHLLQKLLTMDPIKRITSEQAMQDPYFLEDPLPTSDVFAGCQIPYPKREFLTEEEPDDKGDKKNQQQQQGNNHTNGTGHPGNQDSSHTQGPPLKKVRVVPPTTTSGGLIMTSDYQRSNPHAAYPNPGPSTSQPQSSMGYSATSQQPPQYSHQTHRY
Serine/threonine-protein kinase 17A, sequence (Q9UEE5 whole entry): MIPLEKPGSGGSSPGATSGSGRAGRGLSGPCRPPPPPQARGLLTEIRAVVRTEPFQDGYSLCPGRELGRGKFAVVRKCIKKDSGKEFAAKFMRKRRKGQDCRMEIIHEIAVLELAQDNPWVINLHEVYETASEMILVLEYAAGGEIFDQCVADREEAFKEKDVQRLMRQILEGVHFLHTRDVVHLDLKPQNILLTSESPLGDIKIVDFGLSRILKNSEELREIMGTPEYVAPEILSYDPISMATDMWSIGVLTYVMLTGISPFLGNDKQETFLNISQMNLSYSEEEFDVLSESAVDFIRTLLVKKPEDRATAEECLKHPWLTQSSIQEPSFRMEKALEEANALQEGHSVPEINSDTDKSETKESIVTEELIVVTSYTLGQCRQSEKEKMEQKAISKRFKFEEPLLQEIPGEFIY
Serine/threonine-protein kinase Nek2, sequence (P51955 whole entry): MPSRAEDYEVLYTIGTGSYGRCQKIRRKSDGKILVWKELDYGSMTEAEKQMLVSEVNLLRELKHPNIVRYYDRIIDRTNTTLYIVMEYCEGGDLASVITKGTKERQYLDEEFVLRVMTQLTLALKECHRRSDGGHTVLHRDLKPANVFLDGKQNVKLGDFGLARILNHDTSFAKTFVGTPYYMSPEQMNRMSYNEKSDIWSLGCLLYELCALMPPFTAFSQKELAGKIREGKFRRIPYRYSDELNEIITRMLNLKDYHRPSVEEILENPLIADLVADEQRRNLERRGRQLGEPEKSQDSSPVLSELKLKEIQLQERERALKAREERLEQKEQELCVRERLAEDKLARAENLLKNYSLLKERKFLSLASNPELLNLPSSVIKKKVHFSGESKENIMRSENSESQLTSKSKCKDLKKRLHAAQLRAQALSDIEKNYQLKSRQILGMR
Casein kinase I isoform alpha, sequence (P48729 whole entry, canonical isoform): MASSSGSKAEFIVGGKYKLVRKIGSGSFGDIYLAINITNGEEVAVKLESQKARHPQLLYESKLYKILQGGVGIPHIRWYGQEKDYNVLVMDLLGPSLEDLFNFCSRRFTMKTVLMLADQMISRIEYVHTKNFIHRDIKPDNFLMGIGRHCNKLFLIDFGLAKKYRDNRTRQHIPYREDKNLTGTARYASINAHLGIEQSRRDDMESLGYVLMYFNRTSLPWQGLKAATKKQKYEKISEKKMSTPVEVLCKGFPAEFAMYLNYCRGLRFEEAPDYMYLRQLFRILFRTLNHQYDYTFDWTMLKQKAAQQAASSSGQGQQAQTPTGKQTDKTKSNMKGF
Misshapen-like kinase 1, sequence (Q8N4C8 whole entry): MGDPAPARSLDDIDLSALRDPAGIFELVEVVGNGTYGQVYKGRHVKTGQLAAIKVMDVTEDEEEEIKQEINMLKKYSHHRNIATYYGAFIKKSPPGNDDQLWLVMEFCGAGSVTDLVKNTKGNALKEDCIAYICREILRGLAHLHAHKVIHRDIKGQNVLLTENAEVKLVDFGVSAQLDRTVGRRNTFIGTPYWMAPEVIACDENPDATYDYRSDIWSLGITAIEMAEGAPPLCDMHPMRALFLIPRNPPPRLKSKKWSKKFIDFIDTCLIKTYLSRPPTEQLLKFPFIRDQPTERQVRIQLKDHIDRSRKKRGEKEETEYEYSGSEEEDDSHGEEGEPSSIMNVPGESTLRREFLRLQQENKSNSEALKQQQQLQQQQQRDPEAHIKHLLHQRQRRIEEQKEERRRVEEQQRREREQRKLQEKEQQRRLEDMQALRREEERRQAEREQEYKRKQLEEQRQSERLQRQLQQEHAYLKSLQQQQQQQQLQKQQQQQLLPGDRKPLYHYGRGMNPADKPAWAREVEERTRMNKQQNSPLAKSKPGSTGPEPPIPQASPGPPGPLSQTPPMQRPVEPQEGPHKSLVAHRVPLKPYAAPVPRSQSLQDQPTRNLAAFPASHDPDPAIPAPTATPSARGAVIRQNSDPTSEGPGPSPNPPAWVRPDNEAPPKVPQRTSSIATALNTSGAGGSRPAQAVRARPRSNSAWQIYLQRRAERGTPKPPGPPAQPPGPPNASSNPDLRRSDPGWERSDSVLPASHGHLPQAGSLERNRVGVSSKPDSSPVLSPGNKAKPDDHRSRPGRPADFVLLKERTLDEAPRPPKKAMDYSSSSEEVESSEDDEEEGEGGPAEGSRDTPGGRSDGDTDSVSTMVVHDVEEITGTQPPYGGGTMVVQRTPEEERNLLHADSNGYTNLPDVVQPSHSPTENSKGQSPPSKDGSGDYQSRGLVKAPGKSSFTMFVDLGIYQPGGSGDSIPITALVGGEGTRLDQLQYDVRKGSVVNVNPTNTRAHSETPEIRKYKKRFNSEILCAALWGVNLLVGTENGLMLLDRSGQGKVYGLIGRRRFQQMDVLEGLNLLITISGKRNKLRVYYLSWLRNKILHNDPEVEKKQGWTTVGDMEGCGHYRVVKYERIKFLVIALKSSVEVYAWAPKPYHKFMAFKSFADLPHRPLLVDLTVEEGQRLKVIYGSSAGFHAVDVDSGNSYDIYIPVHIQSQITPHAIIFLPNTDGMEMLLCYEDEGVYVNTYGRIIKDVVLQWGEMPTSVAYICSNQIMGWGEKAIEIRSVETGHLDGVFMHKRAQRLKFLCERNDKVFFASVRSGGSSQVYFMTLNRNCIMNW
Calcium/calmodulin-dependent protein kinase type II subunit alpha, sequence (Q9UQM7 whole entry): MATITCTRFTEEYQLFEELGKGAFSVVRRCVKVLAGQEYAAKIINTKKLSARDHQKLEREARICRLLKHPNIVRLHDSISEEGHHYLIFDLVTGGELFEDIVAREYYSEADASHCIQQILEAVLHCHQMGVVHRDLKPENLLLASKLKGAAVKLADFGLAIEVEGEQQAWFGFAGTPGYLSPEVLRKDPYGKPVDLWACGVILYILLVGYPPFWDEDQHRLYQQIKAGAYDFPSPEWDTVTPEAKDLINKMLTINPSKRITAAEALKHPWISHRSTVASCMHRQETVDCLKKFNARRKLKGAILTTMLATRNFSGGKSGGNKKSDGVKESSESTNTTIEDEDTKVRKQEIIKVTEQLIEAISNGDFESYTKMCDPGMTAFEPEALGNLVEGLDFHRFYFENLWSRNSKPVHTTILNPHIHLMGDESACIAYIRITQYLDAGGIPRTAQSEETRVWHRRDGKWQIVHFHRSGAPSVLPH

- Ki [1]: 15.8 nM (active)
- Ki [2]: > 6310 nM (inactive)
- Ki [3]: 10 nM (active)
- Ki [4]: 126 nM (active)
- Ki [5]: 2510 nM (active)
- Ki [6]: 15.8 nM (active)
- Ki [7]: 316 nM (active)
- Ki [8]: > 3160 nM (inactive)
- Ki [9]: 316 nM (active)
- Ki [10]: 398 nM (active)
- Ki [11]: 63.1 nM (active)
- Ki [12]: 25.1 nM (active)
- Ki [13]: 1580 nM (active)
- Ki (Misshapen-like kinase 1): 31.6 nM (active)
- Ki [14]: > 6310 nM (inactive)
- Ki [15]: 251 nM (active)
Structure (SMILES): CN(C)C1CCC(Nc2nc(Cl)cc(-c3c[nH]c4ncccc34)n2)CC1 (stereo not given)

Structure (SMILES): NC(COc1cncc(-c2cc3ccncc3s2)c1)Cc1c[nH]c2ccccc12 (stereo not given)
- Ki [16]: 794 nM (active)
- Ki [17]: > 1580 nM (inactive)
- Ki (LIM domain kinase 1): 794 nM (active)
- Ki [18]: 794 nM (active)
- Ki [19]: 631 nM (active)
- Ki [20]: > 2000 nM (inactive)
- Ki [21]: 251 nM (active)
- Ki [22]: 3980 nM (active)
- Ki (Ephrin type-A receptor 2): > 3160 nM (inactive)
- Ki [23]: 6.31 nM (active)
- Ki [24]: > 10000 nM (inactive)
- Ki [25]: > 10000 nM (inactive)
- Ki [26]: 398 nM (active)
- Ki [27]: 25.1 nM (active)
